Biological target: T1, TLR8 (Homo sapiens, UniProt Q9NR97)
T1 sequence (Q9NR97 27-1041): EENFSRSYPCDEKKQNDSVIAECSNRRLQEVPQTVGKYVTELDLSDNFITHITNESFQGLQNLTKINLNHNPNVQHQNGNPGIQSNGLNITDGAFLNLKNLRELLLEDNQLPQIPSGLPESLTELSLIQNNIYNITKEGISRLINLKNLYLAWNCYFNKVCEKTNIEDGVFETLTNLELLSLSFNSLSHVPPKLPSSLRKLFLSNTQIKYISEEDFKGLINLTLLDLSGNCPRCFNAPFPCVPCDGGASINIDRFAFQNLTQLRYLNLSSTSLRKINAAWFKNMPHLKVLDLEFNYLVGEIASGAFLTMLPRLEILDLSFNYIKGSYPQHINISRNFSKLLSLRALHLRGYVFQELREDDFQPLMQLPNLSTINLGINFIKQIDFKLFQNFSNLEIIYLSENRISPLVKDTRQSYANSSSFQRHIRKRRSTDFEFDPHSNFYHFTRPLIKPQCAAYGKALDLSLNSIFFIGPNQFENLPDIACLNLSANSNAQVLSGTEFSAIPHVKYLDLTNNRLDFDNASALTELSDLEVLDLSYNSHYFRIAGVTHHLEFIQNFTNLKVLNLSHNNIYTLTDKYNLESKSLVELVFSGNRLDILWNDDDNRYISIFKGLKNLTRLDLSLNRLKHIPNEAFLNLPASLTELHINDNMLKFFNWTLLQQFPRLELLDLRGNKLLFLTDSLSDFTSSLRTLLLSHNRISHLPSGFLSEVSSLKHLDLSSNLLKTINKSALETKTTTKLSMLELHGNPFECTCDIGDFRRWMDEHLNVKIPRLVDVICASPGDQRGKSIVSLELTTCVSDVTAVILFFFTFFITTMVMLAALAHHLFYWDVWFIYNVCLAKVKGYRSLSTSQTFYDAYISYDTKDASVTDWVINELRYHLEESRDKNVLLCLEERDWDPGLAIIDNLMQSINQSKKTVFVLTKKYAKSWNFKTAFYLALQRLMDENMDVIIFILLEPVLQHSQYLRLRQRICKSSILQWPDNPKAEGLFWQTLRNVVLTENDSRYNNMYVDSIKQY
Assay: Dose dependent TLR8-mediated NF-κB-luciferase response in HEK293 cells transfected with TLR8 (Example 5)
Type: cell-based
Parameters: expressed in transfected cells; host or cells: HEK293 (ATCC CRL-1573), pIRES vector, G-418 selected, co-transfected with NFkB-luc reporter
Method: Twenty-four hours before transfection, HEK293 cells were adhered to a 10 cm dish (Corning 430167, Corning Inc., Corning, N.Y.) at 37° C., 8% CO2. The cells were co-transfected with (1) pIRES (BD Biosciences Clontech, Palo Alto, Calif.) either (a) unmodified (HEK293-vector) or (b) containing human TLR8 (HEK293-TLR8), and (2) NFkB-luc reporter (Stratagene, La Jolla, Calif.) in a 10:1 ratio with Fugene 6 transfection reagent (Roche Diagnostics Corp., Indianapolis, Ind.) following the manufacturer's instructions. The plates were incubated for 24 hours following transfection and then selected in G-418 (400 μg/mL) for two weeks. The G-418-resistant cells containing either the TLR8 or empty vector were expanded in HEK293 media supplemented with G-418 for stimulation experiments.
The transfected cells were plated in white opaque 96 well plates (Costar 3917, Corning Inc., Corning, N.Y.) at a concentration of 5×10^4 cells per well in 100 μL of HEK293 media and incubated at 37° C., 8% CO2 for 4 hours. The cells were stimulated with 1 μL of IRM compounds at 1 mM in DMSO (final IRM concentration of 10 μM) or 1 μL DMSO as a control. The plates were then incubated an additional 16 hours at 37° C., 5% CO2. Luminescence was measured on an LMAX luminometer (Molecular Devices Corp., Sunnyvale, Calif.).
HEK293 cells were transfected as described in Example 1. HEK293 cultures were incubated with IRM compound or a negative control compound (1,5-dihydro-1-(2-methylpropyl)-4H-imidazo[4,5-c]quinolin-4-one, U.S. Pat. No. 4,698,348, Example 71) at concentrations of 0.1 μM, 0.3 μM, 1.0 μM, 3.0 μM, 10 μM, or 30 μM, or a vehicle control. Cultures were otherwise incubated as described in Example 1. Luciferase signals were read in RLU (Relative Luciferase Units) as described in Example 1.

SMILES | Fold increase over vehicle (0.1 μM) [fold] | Fold increase over vehicle (0.3 μM) [fold] | Fold increase over vehicle (1.0 μM) [fold] | Fold increase over vehicle (3.0 μM) [fold] | Fold increase over vehicle (10 μM) [fold] | Fold increase over vehicle (30 μM) [fold]
COCCc1nc2c(N)nc3ccccc3c2n1CCCCNC(=O)c1cnc2ccccc2c1 [IRM37, N-{4-[4-amino-2-(2-methoxyethyl)-1H-imidazo[4,5-c]quinolin-1-yl]butyl}quinoline-3-carboxamide] | 0.7 | 0.9 | 1.0 | 3.2 | 5.2 | 11.8
COCCc1nc2c(N)nc3ccccc3c2n1CCCCNC(=O)c1cnc2ccccc2n1 [IRM38, N-{4-[4-amino-2-(2-methoxyethyl)-1H-imidazo[4,5-c]quinolin-1-yl]butyl}quinoxaline-2-carboxamide] | 0.8 | 0.8 | 1.3 | 3.8 | 6.9 | 7.8
CCCCc1nc2c(N)nc3ccccc3c2n1CCCNC(=O)N1CCOCC1 [IRM39, N-[3-(4-amino-2-butyl-1H-imidazo[4,5-c]quinolin-1-yl)propyl]morpholine-4-carboxamide] | 0.9 | 1.1 | 1.2 | 1.5 | 6.8 | 18.0
CCCCc1nc2c(N)nc3ccccc3c2n1CCCS(C)(=O)=O [IRM40, 2-butyl-1-[3-(methylsulfonyl)propyl]-1H-imidazo[4,5-c]quinolin-4-amine] | 1.0 | 0.9 | 0.9 | 1.3 | 3.1 | 16.4
COCCc1nc2c(N)nc3c(c2n1CCOCCNC(=O)Nc1ccccc1)CCCC3 [IRM41, N-(2-{2-[4-amino-2-(methoxyethyl)-6,7,8,9-tetrahydro-1H-imidazo[4,5-c]quinolin-1-yl]ethoxy}ethyl)-n′-phenylurea] | 0.7 | 0.9 | 1.0 | 3.3 | 12.7 | 25.4
CCCCc1nc2c(N)nc3ccccc3c2n1CCS(=O)(=O)CC [IRM42, 2-butyl-1-[2-(ethylsulfonyl)ethyl]-1H-imidazo[4,5-c]quinolin-4-amine] | 1.0 | 0.9 | 1.3 | 3.8 | 13.2 | 26.0
CCOCC(=O)NC(C)(C)Cn1c(COCC)nc2c(N)nc3ccccc3c21 [IRM43, N-{2-[4-amino-2-(ethoxymethyl)-1H-imidazo[4,5-c]quinolin-1-yl]-1,1-dimethylethyl}-2-ethoxyacetamide] | 2.3 | 2.3 | 3.3 | 2.1 | 5.6 | 17.0
CCc1nc2c(N)nc3ccccc3c2n1CCS(C)(=O)=O [IRM44, 2-ethyl-1-[2-(methylsulfonyl)ethyl]-1H-imidazo[4,5-c]quinolin-4-amine] | 0.9 | 1.1 | 1.0 | 0.9 | 2.5 | 12.5
CCCCc1nc2c(N)nc3ccccc3c2n1CCS(C)(=O)=O [IRM45, 2-butyl-1-[2-(methylsulfonyl)ethyl]-1H-imidazo[4,5-c]quinolin-4-amine] | 1.5 | 2.5 | 6.7 | 12.1 | 17.0 | 24.3
CCCCc1nc2c(N)nc3ccccc3c2n1CC(C)(C)CNC(=O)N1CCOCC1 [IRM46, N-[3-(4-amino-2-butyl-1H-imidazo[4,5-c]quinolin-1-yl)-2,2-dimethylpropyl]morpholine-4-carboxamide] | 0.9 | 1.1 | 1.4 | 1.7 | 3.9 | 7.3
CCOCc1nc2c(N)nc3ccccc3c2n1CC(C)(C)NC(=O)NC(C)C [IRM47, N-{2-[4-amino-2-(ethoxymethyl)-1H-imidazo[4,5-c]quinolin-1-yl]-1,1-dimethylethyl}-n′-isopropylurea] | 0.9 | 0.8 | 1.1 | 1.7 | 4.9 | 12.5
CCOCc1nc2c(N)nc3cc(-c4ccccc4)ccc3c2n1CC1CCNCC1 [IRM48, 2-ethoxymethyl-7-phenyl-1-(piperidin-4-ylmethyl)-1H-imidazo[4,5-c]quinolin-4-amine] | 0.9 | 0.6 | 1.1 | 1.2 | 8.2 | 9.5
COCCc1nc2c(N)nc3cc(-c4cncc(CO)c4)ccc3c2n1CC(C)(C)O [IRM49, 1-[4-amino-7-(5-hydroxymethylpyridin-3-yl)-2-(2-methoxyethyl)-1H-imidazo[4,5-c]quinolin-1-yl]-2-methylpropan-2-ol] | 1.1 | 1.4 | 2.0 | 3.8 | 7.0 | 15.5
COCCc1nc2c(N)nc3cc(-c4cccc(NS(C)(=O)=O)c4)ccc3c2n1CC(C)(C)O [IRM50, N-{3-[4-amino-1-(2-hydroxy-2-methylpropyl)-2-(methoxyethyl)-1H-imidazo[4,5-c]quinolin-7-yl]phenyl}methanesulfonamide] | 1.8 | 2.1 | 2.2 | 4.1 | 11.7 | 21.1
CCOCc1nc2c(N)nc3cc(-c4cccnc4)ccc3c2n1CC(C)(C)O [IRM51, 1-[4-amino-2-(ethoxymethyl)-7-(pyridin-3-yl)-1H-imidazo[4,5-c]quinolin-1-yl]-2-methylpropan-2-ol] | 1.9 | 3.8 | 11.9 | 15.0 | 21.5 | 22.4
